Assay results published in patent US20210255184A1, “Biosensor Device and Methods” (The New Zealand Institute for Plant and Food Research …, priority 2018, published 2021).

Tests used:
[1] = target: T1, Or10a (Drosophila melanogaster, UniProt Q9VYZ1); experiment: EIS sensor, Or10a liposomes on gold electrode; format: biochemical
T1 construct: his-tag; made in house; host or cells: baculovirus-infected Sf9 cells
T1 sequence (Q9VYZ1 1-406): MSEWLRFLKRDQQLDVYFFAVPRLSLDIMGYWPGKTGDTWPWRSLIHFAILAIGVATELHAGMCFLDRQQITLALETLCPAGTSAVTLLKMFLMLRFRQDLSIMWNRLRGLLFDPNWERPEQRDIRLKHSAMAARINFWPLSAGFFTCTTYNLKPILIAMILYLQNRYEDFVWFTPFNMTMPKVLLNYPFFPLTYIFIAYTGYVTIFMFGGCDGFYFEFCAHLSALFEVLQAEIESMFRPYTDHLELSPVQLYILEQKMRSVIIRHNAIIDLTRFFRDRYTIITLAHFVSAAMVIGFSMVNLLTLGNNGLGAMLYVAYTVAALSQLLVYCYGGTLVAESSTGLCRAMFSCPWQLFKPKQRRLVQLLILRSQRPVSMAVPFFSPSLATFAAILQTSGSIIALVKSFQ
Experimental: Prior to their use, liposomes were defrosted on ice and then destabilized by incubating with 0.2% CHAPS for 15 min at room temperature. Then 200 μg of purified odorant receptor^28 was added to 1 mg of liposomes and rotated at 10 rpm for 1 h at room temperature. Excess detergent was removed by four additions of 25 mg of Bio-Beads SM-2 (Bio-Rad, USA) and incubation at 4° C. for 30 min, 2 h, overnight and a further 2 h respectively. The Bio-Beads were removed after each incubation period. The OrX or OrX/Orco integrated liposomes were pelleted by centrifugation at 100,000 g for 1 h, and were resuspended in 500 μL of rehydration buffer. Integration of OrXs and Orco into liposomes was assessed by density gradient ultracentrifugation (DGU) using Accudenz (Accurate Chemical & Scientific Corporation, USA). The integrated liposomes were brought to 40% Accudenz by the addition of an equal volume of 80% Accudenz solution, placed at the bottom of an ultra-centrifugation tube, and overlaid with 30% Accudenz solution, and DGU buffer (25 mM HEPES pH 7.5, 100 mM NaCl, 10% glycerol). The sample was then centrifuged at 100,000 g for 4 h at 4° C. Liposomes will float to the top of the gradient after Accudenz DGU due to their low density.
2 mM MHA was prepared by dissolving 1.36 μl of MHA in 5 ml ethanol (AR grade). The cleaned electrodes were immersed into MHA solution and incubated overnight. The next day, all the electrodes were washed with ethanol and deionised water thoroughly in order to remove the unreacted acid. A 2:1 mol:mol ratio of EDC:NHS (100 mM EDC, 50 mM NHS) was prepared in 2 ml PBS (pH=6.5) solution. Then, the electrodes were covered in 100 μl of this solution at 28° C. for an hour to activate the carboxylic (COOH) groups of the MHA.
PBS solution was prepared by immersing one tablet of PBS in 200 ml of milli-Q water (according to manufacturers instructions) and filtered using 0.2-μm syringe filter. The pH of the prepared buffer solution was measured with a pH meter. OrX liposomes or OrX/Orco liposomes were diluted 100 fold in PBS buffer solution (pH=7.4) and the COOH-activated electrodes were incubated in that buffer solution at room temperature for one hour. Then, the electrodes were washed extensively with PBS buffer solution to wash out any unbound liposomes.
PBS (pH=7.4) was used as an electrolyte to conduct electrochemical measurements. PBS buffer was degassed for about 30 minutes prior to electrochemical measurements. Odorant solutions of concentration ranging from 1 aM to 1 μM were prepared by sequential dilution in PBS solution containing 1% DMSO. OR immobilized electrodes were incubated in relevant odorant solution for ˜30 minutes each and washed gently with PBS before EIS measurements.
EIS measurements were done in a 3 electrode cell containing Ag/AgCl (3 M NaCl, 0.209 V vs. SHE) reference electrode, coiled platinum wire as a counter electrode and the gold disk as a working electrode at a fixed voltage of −0.7 using PalmSens potentiostat. Degassed PBS was used as an electrolyte.
EIS measurements were performed on gold electrodes functionalised with OrX liposomes (either Or10a or Or22a), OrX/Orco liposomes, or empty liposomes prior to and after target ligand or control ligand incubation with increasing concentrations (1 aM to 100 μM). Dose response curves were obtained by defining sensor response as −(ΔRp/R^op) versus log[C(Ligand)]. FIG. 4a presents the EIS response in terms of Nyquist plot for the Or10a liposome functionalized sensors when exposed to a solution containing one of the known target ligands of Or10a, methyl salicylate, at various concentrations. […] The dose response curve (FIG. 4b) was obtained by plotting the change in polarization resistance −(ΔRp/R^op) versus log[conc(Ligand)], as the sensor response. Here, Rp is the polarization resistance after Or10a liposome-target interaction and R^op is the polarization resistance before Or10a liposome-target interaction.

[2] = GFET sensor, empty liposomes (control); format: biochemical
Experimental: The OR liposomes were functionalised onto the graphene surface via a non-covalent route using PBASE as the molecular linker as shown in FIG. 13. The OR liposomes were diluted at 1:10 ratio with 1×PBS (pH7.4). The cleaned GFETs were immersed in 1 mM PBASE solution in methanol for 1 hour. The devices were washed three times in methanol and subsequently washed three times in 1×PBS to remove the excess PBASE and residual methanol in the channel respectively. The OR liposomes were diluted 1:10 with 1×PBS (pH 7.4) and 100 μL of the OR dilution was placed in the graphene channel and incubated at room temperature for one hour in a closed petri dish. After OR liposome functionalization, the devices were washed in 1×PBS for 10 s before measurements.
The OR liposome immobilised GFET device with a PDMS well mounted on it was placed onto the probe station and the source and drain connections were made by micromanipulators. 100 μl of PBS containing 1% dimethyl sulfoxide (DMSO) was added to the well and the Ag/AgCl standard electrode was placed into the buffer. The stock solution of ligands at 100 mM concentrations were prepared by dissolving them in DMSO as they are not stable in aqueous buffer. The stock solution was stored at 4° C. The ligand solution for sensing was prepared by diluting the stock solution in 1×PBS buffer containing 1% DMSO to set concentrations from 10 fM to 100 pM. […]

## CCCCCC(=O)OC [methyl hexanoate]
[1]; EIS dose response
  sensor response to control ligand: negligible response
[2]
  sensor response to target ligand: lack of response

## COC(=O)c1ccccc1O [methyl salicylate]
[1]; EIS dose response, ligand 1 aM to 100 μM
  limit of detection (LOD): 0.1 pM
[1]; Table 1, approximate
  EC50: ~100 pM
[1]; Table 1, * estimated visually from dose response graph
  Sensitivity limit: ~10^−10 M*
[1]; Table 3
  Detection Range: 10^−13 to 10^−7 M
[1]; Table 3, fitted dose response
  EC50: 2.2 pM
[2]
  sensor response to target ligand: lack of response
